The values that follow come from patent US10023592B2, “Bromodomain inhibitors” (Celgene Quanticel Research, Inc., priority 2013, dated 2018).

Some results are limits rather than exact numbers.

Experiment [1] deals with Raji, human Burkitts lymphoma cells. In words: Cell-MTS proliferation assay, Raji. As to conditions: 168 hr. Type of experiment: cell-based. Here is the method:
(§1) The Cell-MTS assay is a 7-day plate-based colorimetric assay which quantifies the amount of newly generated NADH in the presence or absence of test compound. The NADH level is used for the quantification of cancer cell proliferation.
(§2) Established cancer cell lines with a variety of driving mutations were obtained from American Type Culture Collection (ATCC) and routinely passaged according to ATCC protocols. For routine assay, these cells were seeded at densities which enabled ˜90% confluence after 7 days of culture. Raji, human Burkitts lymphoma cells, (cMYC) were seeded at 15,000 cells per 96-well. HL-60, human proleukemia cells, (NRAS, p16, p53, c-Myc amplified) were seeded at 5,000 cells per 96-well. NCI-H460, human non-small cell lung cancer cells, (KRAS, PIK3CA, STLK11, p16) were seeded at 3,000 cells per 96-well. 24 hr after plating, cells received an 11-point dilution of test compound with final concentration ranges from 100 μM to 2.0 nM. […] At the end of this incubation period, 80 μL of media is removed and 20 μL of CellTiter 96® AQueous Non-Radioactive Cell Proliferation Assay soln (Promega) was added. The cells were incubated until the OD490 was >0.6. IC50 values were calculated using the IDBS XLfit software package and include background subtracted OD490 values and normalization to DMSO controls. Cellular proliferation IC50 values were uploaded and archived using the Chem Biography Platform.
Background: Tetrazolium assays rely on reduction of a dye to a coloured formazan, in cell work by metabolically active cells.

For experiment [2], the system named is HL-60, human proleukemia cells. In words: Cell-MTS proliferation assay, HL-60. Type of experiment: cell-based. As to conditions: 168 hr. Here is the method: as §1, §2
In experiment [3] the test system is NCI-H460, human non-small cell lung cancer cells. Description: Cell-MTS proliferation assay, NCI-H460. It is filed as cell-based. The note with it: Homo sapiens, Cell-MTS proliferation, 168 hr. Here is the method:
as §1, §2

In a further experiment the target is BRD4(BD1) (Homo sapiens (Human), UniProt O60885). In words: In vitro enzyme inhibition assay (BRD4 AlphaScreen). Type of experiment: binding. The procedure, abridged:
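His-tagged BRD4 tested by AlphaScreen for binding of biotinylated H4K5/8/12/16-tetraacetyl peptide. After 20 min at room temperature, streptavidin donor and nickel chelate acceptor beads added (5 μg/mL final each). IC50 determined.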

Setting [4] is: Homo sapiens, Raji, Cell-MTS proliferation.
[5] abbreviates: in vitro enzyme inhibition assay.
The mark [6] stands for this setting: Homo sapiens, Cell-MTS proliferation, HL-60 cells.
Setting [7] is: Homo sapiens, Raji, Cell-MTS, class symbols A/B/C.
[8] abbreviates: Homo sapiens, HL-60, Cell-MTS, class symbols A/B/C.

The IC50 is the point on the concentration scale where inhibition reaches its midpoint.

Take `CCS(=O)(=O)Nc1ncc(Oc2ccc(F)cc2F)c(-c2cc(OC)c(=O)n(C)c2)n1` [Example 168, N-[5-(2,4-difluorophenoxy)-4-(5-methoxy-1-methyl-6-oxopyridin-3-yl)pyrimidin-2-yl]ethanesulfonamide]: the IC50 was under 500 nM in experiment [1] (setting [4]); under 500 nM in experiment [2] (Homo sapiens, HL-60, Cell-MTS proliferation); over 5000 nM in experiment [3] (NCI-H460).

`Cc1cc(-c2cc(S(N)(=O)=O)ccc2NCC2CC2)cn(C)c1=O` [Example 452, 4-(cyclopropylmethylamino)-3-(1,5-dimethyl-6-oxopyridin-3-yl) benzenesulfonamide]: the IC50 at BRD4(BD1) (setting [5]) was 500 to 5000 nM; in experiment [2] (setting [6]), 500 to 5000 nM; in experiment [3] (NCI-H460 cells) it was over 5000 nM.

`Cn1cc(-c2nc(S(C)(=O)=O)ccc2OCC2CC2)c2cc(F)ccc2c1=O` [Example 202, 4-[3-(cyclopropylmethoxy)-6-methylsulfonylpyridin-2-yl]-6-fluoro-2-methylisoquinolin-1-one]: the values for the IC50 (against BRD4(BD1) (setting [5]); in experiment [1] (setting [4]); in experiment [3] (NCI-H460)) were under 500 nM, under 500 nM and over 5000 nM, respectively.

Take `Cn1cc(-c2ccc3c(=O)n(C)cc(-c4cc(NS(C)(=O)=O)ccc4F)c3c2)cn1` [Example 41, N-[4-fluoro-3-[2-methyl-6-(1-methylpyrazol-4-yl)-1-oxoisoquinolin-4-yl]phenyl]methanesulfonamide]: the IC50 (on BRD4(BD1) (class symbols A/B/C); in experiment [1] (setting [7]); in experiment [2] (setting [8])) was under 500 nM in each case.

With `C#Cc1cc(-c2cc(NS(C)(=O)=O)ccc2Oc2ccc(F)cc2F)cn(C)c1=O` [Example 286, N-[4-(2,4-difluorophenoxy)-3-(5-ethynyl-1-methyl-6-oxopyridin-3-yl)phenyl]methanesulfonamide], the IC50 against BRD4(BD1) (setting [5]) was under 500 nM; in experiment [1] (setting [4]) it was 500 to 5000 nM; in experiment [3] (NCI-H460) it was over 5000 nM.

Turning to `CCNS(=O)(=O)c1cccc(-c2cn(C)c(=O)c3cnccc23)c1` [Example 53, N-ethyl-3-(2-methyl-1-oxo-2,7-naphthyridin-4-yl) benzenesulfonamide], the IC50 against BRD4(BD1) (class symbols A/B/C) was 500 to 5000 nM; in experiment [1] (Cell-MTS, class symbols A/B/C), over 5000 nM; in experiment [2] (Cell-MTS, class symbols A/B/C), over 5000 nM.

Consider `Cn1cc(-c2cc(NS(C)(=O)=O)ccc2F)c2ccccc2c1=O` [Example 34, N-[4-fluoro-3-(2-methyl-1-oxoisoquinolin-4-yl)phenyl] methanesulfonamide], for which the IC50 (against BRD4(BD1) (class symbols A/B/C); in experiment [1] (setting [7]); in experiment [2] (setting [8])) was under 500 nM in each case.

With `Cn1cc(-c2ccc3c(=O)n(C)cc(-c4cc(NS(C)(=O)=O)c(F)cc4F)c3c2)cn1` [Example 43, N-[2,4-difluoro-5-[2-methyl-6-(1-methylpyrazol-4-yl)-1-oxoisoquinolin-4-yl]phenyl]methane-sulfonamide], the IC50 (against BRD4(BD1) (class symbols A/B/C); in experiment [1] (setting [7]); in experiment [2] (setting [8])) was under 500 nM each time.

With `Cn1cc(-c2cccc(NS(C)(=O)=O)c2)ccc1=O` [Example 94, N-[3-(1-methyl-6-oxopyridin-3-yl)phenyl]methanesulfonamide], the IC50 at BRD4(BD1) (class symbols A/B/C) was 500 to 5000 nM; in experiment [1] (setting [7]), under 500 nM; in experiment [2] (setting [8]), over 5000 nM.

Consider `CCNS(=O)(=O)c1cccc(-c2cn(C)c(=O)c3cc(F)ccc23)c1` [Example 59, N-ethyl-3-(7-fluoro-2-methyl-1-oxoisoquinolin-4-yl) benzenesulfonamide], for which the IC50 against BRD4(BD1) (class symbols A/B/C) was 500 to 5000 nM; in experiment [1] (Cell-MTS, class symbols A/B/C) it was 500 to 5000 nM; in experiment [2] (Cell-MTS, class symbols A/B/C), 500 to 5000 nM.

For the molecule `Cn1cc(-c2cccc(S(=O)(=O)NCCO)c2)c2ccccc2c1=O` [Example 22, N-(2-hydroxyethyl)-3-(2-methyl-1-oxoisoquinolin-4-yl)benzenesulfonamide], the IC50 (at BRD4(BD1) (class symbols A/B/C); in experiment [1] (setting [7]); in experiment [2] (setting [8])) was 500 to 5000 nM throughout.

Regarding `Cn1cc(-c2cc(NS(C)(=O)=O)c(F)cc2F)c2ccccc2c1=O` [Example 35, N-[2,4-difluoro-5-(2-methyl-1-oxoisoquinolin-4-yl)phenyl]methanesulfonamide], the IC50 (at BRD4(BD1) (class symbols A/B/C); in experiment [1] (setting [7]); in experiment [2] (setting [8])) was 500 to 5000 nM throughout.

With `COc1cc(-c2nc(NS(C)(=O)=O)ncc2Oc2ccc(F)cc2F)cn(C)c1=O` [Example 167, N-[5-(2,4-difluorophenoxy)-4-(5-methoxy-1-methyl-6-oxopyridin-3-yl)pyrimidin-2-yl]methanesulfonamide], the IC50 at BRD4(BD1) (setting [5]) is under 500 nM; in experiment [1] (setting [4]) it was 500 to 5000 nM; in experiment [3] (NCI-H460), over 5000 nM.

As for `CCS(=O)(=O)Nc1cccc(-c2cn(C)c(=O)c3cnccc23)c1` [Example 52, N-[3-(2-methyl-1-oxo-2,7-naphthyridin-4-yl)phenyl] ethanesulfonamide], the IC50 (at BRD4(BD1) (class symbols A/B/C); in experiment [1] (setting [7]); in experiment [2] (setting [8])) was 500 to 5000 nM in each case.

`Cn1cc(-c2cc(S(C)(=O)=O)ccc2OCC2CC2)c2cc(C(F)(F)F)ccc2c1=O` [Example 197]: the results for the IC50 in experiment [1] (setting [4]) and in experiment [3] (NCI-H460) were 500 to 5000 nM and over 5000 nM, respectively.

In the case of `CN(C(=O)OC(C)(C)C)c1cccc(-c2cn(C)c(=O)c3ccccc23)c1` [Example 31, tert-butyl N-methyl-N-[3-(2-methyl-1-oxoisoquinolin-4-yl)phenyl]carbamate], the IC50 (against BRD4(BD1) (class symbols A/B/C); in experiment [1] (setting [7]); in experiment [2] (setting [8])) was 500 to 5000 nM each time.

In the case of `CCS(=O)(=O)Nc1ccc(Oc2ccc(F)cc2F)c(-c2cc(O)c(=O)n(C)c2)c1` [Example 451, N-[4-(2,4-difluorophenoxy)-3-(5-hydroxy-1-methyl-6-oxopyridin-3-yl)phenyl]ethanesulfonamide], the IC50 was under 500 nM at BRD4(BD1) (setting [5]), under 500 nM in experiment [2] (setting [6]) and over 5000 nM in experiment [3] (NCI-H460 cells).

As to `Cn1cc(-c2cc(NS(C)(=O)=O)cc(C(F)(F)F)c2)c2ccccc2c1=O` [Example 40, N-[3-(2-methyl-1-oxoisoquinolin-4-yl)-5-(trifluoromethyl)phenyl] methanesulfonamide], the IC50 (on BRD4(BD1) (class symbols A/B/C); in experiment [1] (setting [7]); in experiment [2] (setting [8])) was 500 to 5000 nM throughout.

With `Cn1cc(-c2ccc(F)c(NS(C)(=O)=O)c2)c2ccccc2c1=O` [Example 37, N-[2-fluoro-5-(2-methyl-1-oxoisoquinolin-4-yl)phenyl] methanesulfonamide], the IC50 was under 500 nM against BRD4(BD1) (class symbols A/B/C), 500 to 5000 nM in experiment [1] (setting [7]) and 500 to 5000 nM in experiment [2] (setting [8]).

In the case of `Cn1cc(-c2cccc(NS(C)(=O)=O)c2)c2ccncc2c1=O` [Example 51, N-[3-(2-methyl-1-oxo-2,7-naphthyridin-4-yl)phenyl]methanesulfonamide], the results for the IC50 (against BRD4(BD1) (class symbols A/B/C); in experiment [1] (setting [7]); in experiment [2] (setting [8])) were 500 to 5000 nM, over 5000 nM and 500 to 5000 nM, respectively.

In the case of `Cn1cc(-c2cc(NS(C)(=O)=O)ccc2Cl)c2ccccc2c1=O` [Example 38, N-[4-chloro-3-(2-methyl-1-oxoisoquinolin-4-yl)phenyl] methanesulfonamide], the IC50 against BRD4(BD1) (class symbols A/B/C) was under 500 nM; in experiment [1] (setting [7]), 500 to 5000 nM; in experiment [2] (setting [8]), under 500 nM.

Consider `COc1cc(-c2nc(CS(C)(=O)=O)ncc2Oc2ccc(F)cc2F)cn(C)c1=O` [Example 146, 5-[5-(2,4-difluorophenoxy)-2-(methylsulfonylmethyl)pyrimidin-4-yl]-3-methoxy-1-methylpyridin-2-one], for which the results for the IC50 (on BRD4(BD1) (setting [5]); in experiment [1] (setting [4]); in experiment [3] (NCI-H460)) were under 500 nM, 500 to 5000 nM and over 5000 nM, respectively.

As for `COc1ccc(-c2cn(C)c(=O)c3ccccc23)cc1C(=O)NCc1ccccc1` [Example 18, N-benzyl-2-methoxy-5-(2-methyl-1-oxoisoquinolin-4-yl)benzamide], the concentration for half-maximal inhibition (IC50) (at BRD4(BD1) (class symbols A/B/C); in experiment [1] (setting [7]); in experiment [2] (setting [8])) was 500 to 5000 nM in each case.

Regarding `COc1ccc(-c2cn(C)c(=O)c3ccccc23)cc1NS(C)(=O)=O` [Example 30, N-[2-methoxy-5-(2-methyl-1-oxoisoquinolin-4-yl)phenyl]methanesulfonamide], the figures for the IC50 (at BRD4(BD1) (class symbols A/B/C); in experiment [1] (setting [7]); in experiment [2] (setting [8])) were under 500 nM, 500 to 5000 nM and under 500 nM, respectively.

Consider `Cn1cc(-c2nc(NS(C)(=O)=O)ncc2Oc2ccc(F)cc2F)c2ccccc2c1=O` [Example 165, N-[5-(2,4-difluorophenoxy)-4-(2-methyl-1-oxoisoquinolin-4-yl)pyrimidin-2-yl]methanesulfonamide], for which the IC50 against BRD4(BD1) (setting [5]) was under 500 nM; in experiment [1] (setting [4]), 500 to 5000 nM; in experiment [3] (NCI-H460), over 5000 nM.

As to `Cc1cc(-c2nc(CS(C)(=O)=O)ncc2Oc2ccc(F)cc2F)cn(C)c1=O` [Example 147, 5-[5-(2,4-difluorophenoxy)-2-(methylsulfonylmethyl)pyrimidin-4-yl]-1,3-dimethylpyridin-2-one], the IC50 against BRD4(BD1) (setting [5]) is under 500 nM; in experiment [1] (setting [4]), 500 to 5000 nM; in experiment [3] (NCI-H460) it was over 5000 nM.
